Target: T1, Jak1 (Homo sapiens, UniProt P23458)
T1 construct: endogenous in cells; host or cells: TF1 cells
Experiment: Jak1 (PSTAT3 TF1) alpha screen assay: inhibition of IL-6 induced phosphorylation of STAT3 in TF1 cells
Format: cell-based
Details: calculated from tabulated EC50 data (Jak1 / Tyk2)
Protocol: 2. JAK1 (PSTAT3 TF1) ALPHA SCREEN ASSAY
IL-6 is known to transduce its signal through IL-6 receptor via Jak1. Activity against Jak1 was therefore measured by determining inhibition of IL-6 induced phosphorylation of STAT3 in TF1 cells.
Cell Type: TF1 Cells; Culture Medium: RPMI 1640 Medium, 2mM L-glutamine, 10% heat- inactivated fetal bovine serum (FBS), 10 mM hydroxyethyl piperazineethanesulfonic acid (HEPES), and 2 ng/mL recombinant human interleukin-6(IL-6); Assay Medium: Dulbecco's Modified Eagle Medium (DMEM) medium with 2 mM L-glutamine, 10 mM HEPES, 100 U/mL penicillin/streptomycin, 1.5 g/L sodium bicarbonate, 4.5 g/L glucose, 1 mM sodium pyruvate, 10% heat-inactivated FBS; Compound Preparation: Compounds are dissolved in 100% dimethyl sulfoxide (DMSO).
Day One—Starve Cells: 4 Flasks for one 384 plate (spin down @1000 rpm for 10 minutes and add RPMI 1640 Medium, 2 mM L-glutamine, 10% FBS, 10 mM HEPES with no IL-6 -incubate overnight).
Day Two—Compound Dilutions:
i. Manual 8-point 1:5 dilution curve: 5 mM top concentration dispensed in row A of a
Corning 96-well polypropylene plate, columns 2-12. DMSO dispensed in position A01 for low and high controls. Compounds were serially diluted 1:5 by adding 10 μL stock to […] DMSO down the plate.
ii. Media dilution of compounds: Serially diluted compounds were further diluted 1:12.5 in assay medium by adding 4 μL compound to 46 μL assay medium in a Corning 96-well polypropylene plate.
384 Alpha Screen Plate Set up: Transfer 2.5 μL/well of compound solution from assay media dilution plate. Replicates were vertical, one column of the 96-well dilution plate goes into one column on the 384-well plate twice. Plated 1×10^5 starved cells/well in 5 μL. Washed cells in 10 mL DMEM medium after spinning down. Brought cell pellet up in assay media. Counted live cells. Multiplied by dilution factor and 10,000 (constant) to get the concentration of viable cells. Multiplied by volume of assay media used to bring up cells to get the total number of live cells. Divided by 20,000,000 cells/mL to get the volume needed. Cells were plated at 5 μL/well in gray Alpha Screen 384-well plate. Spinned the plate to bring the contents to the bottom of the wells at 300 rpm for 60 seconds. Top final compound concentration: 25 μM. Sealed with adhesive and tapped gently. Incubated plate at 37° C. for 30 minutes. c. IL-6 Stimulation (pSTAT3)
Once cells were in incubator, immediately prepared working stock of IL-6 (100 ng/mL final concentration). IL-6 stock=10 μg/mL of IL-6 in phosphate buffered saline with 0.1% bovine serum albumin. Diluted 1:25 by adding 60 μL stock IL-6 to 1440 μL assay media. Added 2.5 μL IL-6 to each well. Spinned plate at 300 rpm briefly; tapped the plate gently before covering with an adhesive seal. Incubated plate at 37° C. for 30 minutes.
Added 2.5 μL of 5X Lysis buffer to each well. Incubated at room temperature on orbital shaker for 10 minutes.
e. Protein (A) Acceptor Beads Preparation:
Phosphorylated Signal Transducer and Activator of Transcription 3 (pSTAT3) was quantified using the PerkinElmer SureFire pSTAT3 (Tyrosine 705) Assay. Calculated total volume needed (wells×[…]×25%). Divided total volume by 5 to get volume of activation buffer. Subtracted volume of activation buffer from total volume and divide by 40 to get volume of acceptor beads (add last). Total volume−acceptor bead volume−activation buffer=volume of reaction buffer. Added 15 μL to each well and covered with foil. Shaked on orbital shaker for 2 hours at 500 rpm.
f. Streptavidin Donor Beads Preparation:
Calculated total volume needed (wells×[…]×25%). Divided total volume by 20 to get volume of donor beads (add last). Subtracted volume of donor beads from total volume to get volume of dilution buffer. Added 6 μL to each well and covered with foil. Shaked on orbital shaker overnight at 500 rpm.
Read plate on a Perkin Elmer Envision. […]

T1 sequence (P23458 whole entry): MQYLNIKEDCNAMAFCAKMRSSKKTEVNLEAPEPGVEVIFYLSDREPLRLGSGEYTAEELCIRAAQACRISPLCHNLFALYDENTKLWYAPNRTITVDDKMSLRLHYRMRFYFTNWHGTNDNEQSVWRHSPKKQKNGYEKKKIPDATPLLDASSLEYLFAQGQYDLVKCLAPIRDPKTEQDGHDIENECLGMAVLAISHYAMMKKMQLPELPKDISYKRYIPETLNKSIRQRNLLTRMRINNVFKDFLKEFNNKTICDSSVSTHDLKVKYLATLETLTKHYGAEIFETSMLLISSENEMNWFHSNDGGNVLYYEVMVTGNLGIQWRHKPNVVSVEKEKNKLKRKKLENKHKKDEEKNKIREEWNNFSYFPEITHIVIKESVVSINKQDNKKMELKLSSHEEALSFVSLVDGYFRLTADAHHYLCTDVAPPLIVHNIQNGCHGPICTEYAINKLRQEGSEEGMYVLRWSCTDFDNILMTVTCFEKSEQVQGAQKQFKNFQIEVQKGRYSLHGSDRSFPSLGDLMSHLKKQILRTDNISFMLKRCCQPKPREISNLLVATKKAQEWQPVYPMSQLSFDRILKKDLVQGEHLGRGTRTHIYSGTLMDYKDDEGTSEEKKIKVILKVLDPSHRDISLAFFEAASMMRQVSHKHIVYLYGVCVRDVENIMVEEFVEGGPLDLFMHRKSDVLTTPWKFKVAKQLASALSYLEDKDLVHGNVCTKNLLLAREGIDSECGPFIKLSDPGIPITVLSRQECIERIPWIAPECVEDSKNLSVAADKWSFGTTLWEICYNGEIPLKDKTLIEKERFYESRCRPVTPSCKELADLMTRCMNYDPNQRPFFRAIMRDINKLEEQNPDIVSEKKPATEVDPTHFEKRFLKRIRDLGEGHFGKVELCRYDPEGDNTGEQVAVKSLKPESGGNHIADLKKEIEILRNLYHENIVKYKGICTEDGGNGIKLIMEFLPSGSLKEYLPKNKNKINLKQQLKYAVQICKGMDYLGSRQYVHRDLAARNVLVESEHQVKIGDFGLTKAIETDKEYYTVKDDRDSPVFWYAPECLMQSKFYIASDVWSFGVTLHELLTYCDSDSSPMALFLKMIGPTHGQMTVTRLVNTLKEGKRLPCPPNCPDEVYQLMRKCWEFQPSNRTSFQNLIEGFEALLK

| Tyk2 selectivity over Jak1 | SMILES |
| --- | --- |
| 6400-fold | CO[C@@]1(c2cc(C)cc(-c3cn([C@H]4C[C@@H](C#N)C4)c4cnc(NC(C)=O)cc34)n2)CCOC1 [Example 17.5, N-(1-((cis)-3-cyanocyclobutyl)-3-(6-((R)-3-methoxytetrahydrofuran-3-yl)-4-methylpyridin-2-yl)-1H-pyrrolo[2,3-c]pyridin-5-yl)acetamide] |
| >641-fold | COc1cc(-c2cn([C@@H]3CCOC3)c3cnc(NC(C)=O)cc23)nc([C@]2(OC)CCOC2)c1 [Example 5.2, N-(3-(4-methoxy-6-((R)-3-methoxytetrahydrofuran-3-yl)pyridin-2-yl)-1-((R)-tetrahydrofuran-3-yl)-1H-pyrrolo[2,3-c]pyridin-5-yl)acetamide] |
| 157-fold | CO[C@@]1(c2cc(C)cc(-c3cn([C@H]4C[C@H](C#N)C4)c4cnc(NC(C)=O)cc34)n2)CCOC1 [Example 17.4, N-(1-((trans)-3-cyanocyclobutyl)-3-(6-((R)-3-methoxytetrahydrofuran-3-yl)-4-methylpyridin-2-yl)-1H-pyrrolo[2,3-c]pyridin-5-yl)acetamide] |
| 50-fold | CO[C@]1(c2cc(OCC3COC3)cc(-c3cn(C)c4cnc(NC(C)=O)cc34)n2)CCOC1 [Example 6.2, (S)-N-(3-(6-(3-methoxytetrahydrofuran-3-yl)-4-(oxetan-3-ylmethoxy)pyridin-2-yl)-1-methyl-1H-pyrrolo[2,3-c]pyridin-5-yl)acetamide] |
| 909-fold | CO[C@@]1(c2cc(C(F)F)cc(-c3cn(C)c4cnc(NC(N)=O)cc34)n2)CCOC1 [Example 12.5, (R)-1-(3-(4-(difluoromethyl)-6-(3-methoxytetrahydrofuran-3-yl)pyridin-2-yl)-1-methyl-1H-pyrrolo[2,3-c]pyridin-5-yl)urea] |

Further lines, the compound ahead of its results:

| SMILES | Tyk2 selectivity over Jak1 |
| --- | --- |
| NC(=O)Nc1cc2c(-c3cccc(C4(O)COC4)n3)cn([C@@H]3CCOC3)c2cn1 [Example 15, (R)-1-(3-(6-(3-Hydroxyoxetan-3-yl)pyridin-2-yl)-1-(tetrahydrofuran-3-yl)-1H-pyrrolo[2,3-c]pyridin-5-yl)urea] | 80-fold |
| CO[C@@]1(c2cc(C#N)cc(-c3cn([C@@H]4CC4(F)F)c4cnc(NC(N)=O)cc34)n2)CCOC1 [Example 12a.3, 1-(3-(4-cyano-6-((R)-3-methoxytetrahydrofuran-3-yl)pyridin-2-yl)-1-((R)-2,2-difluorocyclopropyl)-1H-pyrrolo[2,3-c]pyridin-5-yl)urea] | >1515-fold |
| COc1cc(-c2cn(C3COC3)c3cnc(NC(C)=O)cc23)nc([C@]2(OC)CCOC2)c1 [Example 5, (R)-N-(3-(4-methoxy-6-(3-methoxytetrahydrofuran-3-yl)pyridin-2-yl)-1-(oxetan-3-yl)-1H-pyrrolo[2,3-c]pyridin-5-yl)acetamide] | >901-fold |
| CO[C@@]1(c2cc(C(F)F)cc(-c3cn([C@@H]4CCOC4)c4cnc(NC(N)=O)cc34)n2)CCOC1 [Example 12b.2, 1-(3-(4-(difluoromethyl)-6-((R)-3-methoxytetrahydrofuran-3-yl)pyridin-2-yl)-1-((R)-tetrahydrofuran-3-yl)-1H-pyrrolo[2,3-c]pyridin-5-yl)urea] | 2667-fold |
| CO[C@@]1(c2cc(OC3COC3)cc(-c3cn(C)c4cnc(NC(C)=O)cc34)n2)CCOC1 [Example 8, (R)-N-(3-(6-(3-Methoxytetrahydrofuran-3-yl)-4-(oxetan-3-yloxy)pyridin-2-yl)-1-methyl-1H-pyrrolo[2,3-c]pyridin-5-yl)acetamide] | 244-fold |
| CO[C@@]1(c2cc(C(F)F)cc(-c3cn([C@H]4CCOC4)c4cnc(NC(N)=O)cc34)n2)CCOC1 [Example 12b.3, 1-(3-(4-(difluoromethyl)-6-((R)-3-methoxytetrahydrofuran-3-yl)pyridin-2-yl)-1-((S)-tetrahydrofuran-3-yl)-1H-pyrrolo[2,3-c]pyridin-5-yl)urea] | 1214-fold |

From patent US10508113B2, “Inhibitors of tyrosine kinase 2 mediated signaling” (AbbVie Inc., priority 2018, dated 2019)
